Data set [1] relates to subtilases (SBTs), papain-like Cys proteases (PLCPs) and metalloproteases in AF. Nature of the data set: QP processing in AF of leaves expressing protease inhibitors Epi1, SlCys8 or HsTIMP. The format is biochemical, Nicotiana benthamiana. The note with it: AF from leaves transiently expressing Epi1 (HsTIMP for comparison); EV = 100%; n = 3; Fig. 3a. As to the method:
(§1) Agrobacterium tumefaciens GV3101 (pMP90) was used for agroinfiltration of N. benthamiana. Agrobacteria were grown overnight in Luria-Bertani (LB) medium with 10 μg/ml gentamycin and 50 μg/ml kanamycin at 28 °C. For transient expression of proteins in N. benthamiana, overnight cultures of Agrobacterium carrying binary vectors listed in Supplementary Table 1 were harvested by centrifugation. Bacterial cells were resuspended in agroinfiltration buffer (10 mM MgCl2, 10 mM MES pH 5.6, 150 μM acetosyringone) and mixed (1:1) with agrobacteria carrying the silencing inhibitor p19 at an OD600 of 0.5. After 1 h at 28 °C, cells were infiltrated into leaves of 4-week-old N. benthamiana. The infected plants were grown in a growth chamber until use.
The quenched peptides (QPs) from flagellin were commercially synthesised with a DABCYL N-terminal modification and a Glu-EDANS C-terminal modification (GenScript, Piscataway, New Jersey, United States) at a purity of 95% (Supplementary Table 2). They were resuspended in DMSO at a concentration of 1 mM. […] AFs or purified SBT5.2a were mixed with QPs at a final concentration of 10 µM in a volume of 100 µl, and fluorescence was measured immediately at 21 °C using an Infinite M200 plate reader (Tecan, Mannedorf, Switzerland) every minute over 5 min with an excitation wavelength of 335 nm and emission wavelength of 493 nm. […]

The subject of data set [2] is SBT5.2, SBT1.9a, SBT1.7a, SBT1.7c in AF. As to the kind of experiment: QP processing in AF of plants silenced for subtilases (VIGS). The conditions noted are these: 10 µM QP; TRV::GFP = 100%; n = 3 plants; Fig. 4a. It counts as in vitro ADME, Nicotiana benthamiana. As to the method: (§2) The quenched peptides (QPs) from flagellin were commercially synthesised with a DABCYL N-terminal modification and a Glu-EDANS C-terminal modification (GenScript, Piscataway, New Jersey, United States) at a purity of 95% (Supplementary Table 2). They were resuspended in DMSO at a concentration of 1 mM. This stock solution was further diluted in water to a concentration of 200 µM. AFs or purified SBT5.2a were mixed with QPs at a final concentration of 10 µM in a volume of 100 µl, and fluorescence was measured immediately at 21 °C using an Infinite M200 plate reader (Tecan, Mannedorf, Switzerland) every minute over 5 min with an excitation wavelength of 335 nm and emission wavelength of 493 nm.
(§3) Agrobacterium cultures were grown overnight and resuspended in an agroinfiltration buffer at OD600 = 0.5. Agrobacteria carrying binary plasmids for expressing RNA2 of TRV-carrying silencing fragments (Supplementary Table 1) were mixed 1:1 with Agrobacteria containing TRV1[38]. After incubation for 1 h at 21 °C, the mixed cultures were infiltrated into the leaves of 14-day-old N. benthamiana plants. The infiltrated plants were grown for another 4 to 5 weeks in a growth chamber until use.
N. benthamiana leaves were submerged in ice-cold water and vacuum infiltrated in a 50 ml syringe with a plunger. […]

The test system of data set [3] is AF of sbt5.2 mutant N. benthamiana. It counts as in vitro ADME, Nicotiana benthamiana. The conditions noted are these: 10 µM QP; n = 4; Fig. 5b. On the procedure:
as §2
(§4) N. benthamiana leaves were submerged in ice-cold water and vacuum infiltrated in a 50 ml syringe with a plunger. The surface of water-infiltrated leaves was dried with absorbing paper and leaves were carefully inserted into an empty 20 ml syringe, which was placed in a 50 ml tube. AFs were collected by centrifugation at 2000 × g at 4 °C for 10 min. AFs were immediately used or frozen using liquid nitrogen and stored at −20 °C until use.

Data set [4] deals with purified SBT5.2a-His. Nature of the data set: QP cleavage by purified SBT5.2a-His (fluorescence). The format is biochemical, Nicotiana benthamiana. The note with it: 10 μl of 25 μg/ml SBT5.2a-His, 10 µM QP; n = 4; Fig. 6a. On the procedure:
as §2
(§5) Four-week-old N. benthamiana leaves were infiltrated with a 1:1 mixture (final OD600 = 0.5 for each) of Agrobacterium tumefaciens GV3101 containing the silencing suppressor P19 and pPB097[22]. Apoplastic fluid containing SBT5.2a-His was extracted 6 days after infiltration as described above and purified as previously described[40],[41]. Briefly, SBT5.2a-His was purified by HisPur™ Ni-NTA resin and concentrated in 25 mM Tris-HCl pH = 6.8 using a 50 kDa MWCO Amicon Ultra-15 filter.

Data set [5] concerns leaf discs of WT or sbt5.2 mutant N. benthamiana. As to the kind of experiment: ROS burst assay on sbt5.2 mutant versus WT leaf discs (timing, dose response). The note with it: n = 12; Fig. 5e, 5f. It counts as cell-based, Nicotiana benthamiana. As to the method: (§6) ROS assays were performed as described previously. Briefly, after incubation in water overnight, one leaf disc (6 mm diameter) was added to 100 µl solution containing 25 ng/µl luminol, 25 ng/µl Horse Radish Peroxidase (HRP) and specified elicitor treatments. For assays with treated elicitors, elicitor peptides or purified flagellin were incubated in AFs from N. benthamiana leaves (wild-type, agroinfiltrated, VIGS-silenced or sbt5.2 mutants) or purified SBT5.2a-HIS for the specified time at 21 °C. After incubation, 25 ng/µl luminol and 25 ng/µl HRP were added to the AFs. Chemiluminescence was measured immediately with the Infinite M200 plate reader (Tecan, Mannedorf, Switzerland) every minute for one hour. Standard errors were calculated at each time point and for each treatment.

The test system of data set [6] is apoplastic proteases in apoplastic fluids (AF) of N. benthamiana. As to the kind of experiment: Residual immunogenicity (ROS assay) after incubation of elicitor in AF of WT plants. It counts as in vitro ADME, Nicotiana benthamiana. The note with it: ROS read-out, n = 6. As to the method:
as §4, §6

The test system of data set [7] is subtilases in AF of N. benthamiana. Nature of the data set: Residual immunogenicity (ROS assay) after incubation in AF of leaves transiently expressing Epi1 or empty vector. The note with it: 10 µg/ml monomeric flagellin or 100 nM flg22, 40 min in AF; ROS read-out, n = 6; Fig. 3b. The format is in vitro ADME, Nicotiana benthamiana. As to the method: as §1
N. benthamiana leaves were submerged in ice-cold water and vacuum infiltrated in a 50 ml syringe with a plunger. The surface of water-infiltrated leaves was dried with absorbing paper and leaves were carefully inserted into an empty 20 ml syringe, which was placed in a 50 ml tube. AFs were collected by centrifugation at 2000 × g at 4 °C for 10 min. […]
ROS assays were performed as described previously. […] Chemiluminescence was measured immediately with the Infinite M200 plate reader (Tecan, Mannedorf, Switzerland) every minute for one hour. Standard errors were calculated at each time point and for each treatment.

In data set [8] the test system is FLS2. The conditions noted are these: microsomal fractions that presumably lack subtilases; read-out: IC50, competition with binding by radiolabeled flg22; cited from earlier work. An excerpt: However, although flagellin can bind FLS2, it is unclear at this stage if it would also activate FLS2 signalling because that would require subsequent BAK1 binding to FLS2. The extension of flg22 at its C-terminus is likely to obstruct BAK1 binding, based on the structure of flg22 bound to the FLS2 and BAK1[34].

Data set [9] concerns SBT5.2 subtilases in AF. As to the kind of experiment: Residual immunogenicity (ROS assay) after incubation in AF of TRV::SBT5.2 or TRV::GFP plants. It counts as in vitro ADME, Nicotiana benthamiana. The conditions noted are these: 100 nM flg22, 0, 30, 60 min in AF; ROS read-out, n = 6; Fig. 4b. On the procedure: as §3, §4
ROS assays were performed as described previously. Briefly, after incubation in water overnight, one leaf disc (6 mm diameter) was added to 100 µl solution containing 25 ng/µl luminol, 25 ng/µl Horse Radish Peroxidase (HRP) and specified elicitor treatments. […] Chemiluminescence was measured immediately with the Infinite M200 plate reader (Tecan, Mannedorf, Switzerland) every minute for one hour. Standard errors were calculated at each time point and for each treatment.

Data set [10] relates to AF of sbt5.2 mutant N. benthamiana. It counts as in vitro ADME, Nicotiana benthamiana. The conditions noted are these: 100 nM flg22, 30 min in AF; ROS read-out, n = 6; Fig. 5c. As to the method:
as §4, §6

In data set [11] the test system is purified SBT5.2a-His. As to the kind of experiment: Residual immunogenicity (ROS assay) after incubation with purified SBT5.2a-His. The format is biochemical, Nicotiana benthamiana. The conditions noted are these: 50 nM flg22, 10 μg/ml SBT5.2a-His, 40 min; ROS read-out, n = 6; Fig. 6b. On the procedure:
as §5, §6

A short description of data set [12]: Solubility of quenched peptide (observation on dissolving the powder). It counts as physicochemical. The conditions noted are these: noticed when dissolving the peptide powder; response to reviewers.

No end group written: not given here.

With “SAKDDAAG [QP3, custom-synthesised quenched peptide with cleavage site SAKD ↓ DAAG within flg22, DABCYL and Glu-EDANS]”, in data set [1], the “QP processing in AF containing Epi1” value is reported as “suppressed more by Epi1 than by HsTIMP”. Further, in data set [2], the “QP processing in AF of TRV::SBT1.9a and TRV::SBT1.7a plants” value is “also reduced”; the “QP processing in AF of TRV::SBT5.2 plants compared to TRV::GFP control” value was “not as strongly reduced”. Besides, the “QP processing in AF of sbt5.2 mutant plants versus WT” value in data set [3] was “only slightly reduced”. In addition, the “cleavage by purified SBT5.2a-His” value in [4] was “hardly cleaved”.
On to flagellin, for which the “timing and amplitude of oxidative burst, WT versus sbt5.2 mutant leaf discs” value in data set [5] is given as “similar”. In addition, in [6] (10 µg/ml monomeric flagellin incubated with AF for 30 or 60 min, 21 °C, Fig. 1e), the “oxidative burst after incubation with AF” value is “quickly disappears”. Also, the “immunogenic activity after incubation in AF from leaves expressing Epi1” value in data set [7] is given as “immunogenic activity was detected”. The concentration for half-maximal inhibition (IC50) in data set [8] was 0.12 µM.
“TRLSSGLKINSAKDDAAGLQIA [flg22, reference compound]”: the “immunogenicity after incubation in AF of WT plants” value in data set [6] (100 nM flg22, 30 min in AF, Fig. 5c) was “quickly lost”. Besides, in data set [7], the “immunogenic activity after incubation in AF from leaves expressing Epi1” value was “immunogenic activity was detected”. The “decline of immunogenicity in AF of TRV::SBT5.2 compared to TRV::GFP plants” value in data set [9] is reported as “much slower”. Also, the “immunogenicity after incubation in AF of sbt5.2 plants” value in data set [10] was “retains immunogenicity significantly longer”. The “elicitor activity after incubation with purified SBT5.2a-His” value in data set [11] was “inactivated its elicitor activity”.
Turning to “LQIA ↓ TKITS [QP4, custom-synthesised quenched peptide with flg22-flanking site LQIA ↓ TKITS, DABCYL and Glu-EDANS]”, in [1], the “QP processing in AF containing Epi1” value was “near complete blockage”. For the same substance, the “QP processing in AF of sbt5.2 mutant plants versus WT” value in data set [3] was “strongly reduced but not significant”. Also, in [12], the solubility result is reported as “problematic”.

One may read the IC50 as the concentration that inhibits the measured activity by half.
